# Test results reported in EP4140481A1, “PROTEIN-OLIGOMER BINDING AGENTS AND THERAPEUTIC USES THEREOF” (Galyan Bio, Inc., priority 2021, dated 2023).
# pEC50: −log10 of the molar value. Where two headings read alike, the source gives them in different places.
# How the values were obtained:
# R6/2 mice = assay: Rotarod in R6/2 mice of Huntington's disease; assay type: in vivo; settings: for rotarod performance: 33 mg/kg i.p. QD
# Description: Methods ― Total of 20 female and male R6/2 mice and 10 female and male wild-type littermate control mice (WT) were used in the study. The mice were genotyped and the R6/2 mice were divided into different treatment groups based on their litter and baseline body weight. The treatment with Vehicle or Compound 22 (33 mg/kg; 5 ml/kg, i.p. QD) was started at 4 weeks of age after the baseline behavioral tests (Figure 6). Body weights were measured at 3 weeks of age and twice a week until the end of the study.
# The experimental groups were: • Group 1) 10 wild-type mice (mixed gender) treated with Vehicle (5 ml/kg, i.p., QD) starting at 4 weeks of age • Group 2) 10 R6/2 mice (mixed gender) treated with Vehicle (5 ml/kg, i.p., QD) starting at 4 weeks of age • Group 3) 10 R6/2 mice (mixed gender) treated with Compound 22 (33 mg/kg; 5 ml/kg, i.p. QD) starting at 4 weeks of age
# Compound Delivery and Dosing - Treatment with Compound 22 (33 mg/kg; 5 ml/kg, i.p. QD) or Vehicle was started at age week 4 and continued until the 12 weeks of age. The test articles were handled and stored and the dose formulations were prepared according to detailed instructions provided by the Sponsor.
# Rotarod - The Rotarod test was perfomed at 4 (pre-treatment baseline), 6, 8 and 10 weeks of age. Each testing day included a training trial of 5 min at 4 RPM on the Rotarod apparatus (AccuScan Instruments, Columbus, USA). 30 minutes later, the animals were tested for 3 consecutive accelerating trials of 6 min with the speed changing from 0 to 40 RPM over 360 seconds and with an inter-trial interval of at least 30 min. The latency to fall from the rod was recorded. Mice remaining on the rod for more than 360 s were removed and their time scored as 360 sec.
# […] littermate control mice (F1 generation) were bred by Charles River Laboratories, Sulzfeld, Germany by mating (F0 generation) WT males (C57BL/6J; systematically re-infused with pedigreed JAX mice, stock 000664) with ovarian transferred (OT) TG females (JAX, stock 006494). After weaning mice were sent from Germany to Charles River, Kuopio, Finland at an age of 3 weeks. Following genotyping and acclimation, the mice were enrolled in the study.
# [1] = Solubilization of Compound 4; assay type: physicochemical
# mHTT [2] = molecular target: T1, mHTT (Homo sapiens, UniProt P42858); assay: mHTT levels in striatal cells (immunocytochemistry); assay type: cell-based, mouse; settings: STHdh 111/111; MW1 primary antibody; non-linear regression; read-out: EC 50 value for mHTT reduction
# T1 construct: host or cells: ST HDH Q111/111 mouse striatal cell line (knock-in locus)
# C. elegans = C. elegans differential gene expression (RNA-Seq); assay type: in vivo; settings: vs. vehicle control
# Description: […]. Both young (adult day 3) and aged (adult day 10) worms were collected from the same population of worms tested in lifespan assay.
# Technical Background and Data Visualization Guide: Differential gene expression was performed with EdgeR using […] likelihood ratio tests based on fitting linear models. The likelihood ratios were used to determine the p-values which were subsequently corrected for using the BH false discovery rate (fdr) method. Eventually, differential expressed genes (DEG) were defined as genes with fdr-corrected p-value of 0.05 or lower, as well as a change in expression of at least 2-fold in a given between-group comparison. In this study, the following comparisons groups were used: Table 36: Comparison groups for differential gene expression
# […]. All DEG shown have P values under the cutoff of 0.05; […]. Gene function annotations collected from WormBase and human orthologs are predicted by DRSC Integrative Ortholog Prediction Tool (DIOPT, www.flyrna.org). […] […]. All DEG shown have P values under the cutoff of 0.05; […]. Gene function annotations collected from WormBase and human orthologs are predicted by DRSC Integrative Ortholog Prediction Tool (DIOPT, www.flyrna.org).
# A30P mutant α-Synuclein = molecular target: T2, A30P mutant α-Synuclein (Homo sapiens, UniProt P37840, A30P); assay: Dynamic Light Scattering (DLS), induced aggregation; assay type: biochemical
# T2 construct: purchased rPeptide, Watkinsville, Georgia S-1005-2
# Description: Proteins were ultracentrifuged with 50,000 rpm (rounds per minute) for one hour at 2 °C. The supernatant was used for DLS measurements. DLS measurements were conducted with Malvern Zetasizer Nano (Malvern Panalytical Ltd, United Kingdom).
# A30P mutant α-Synuclein (catalog S-1005-2, rPeptide, Watkinsville, Georgia) was solved in 20 mM phosphate, pH 7.4 buffer.
# mHTT [3] = molecular target: T1, mHTT; settings: reported effects in cultured cells, quoted for C. elegans dose selection; cited from earlier work
# [4] = by number, 100 µM equimolar Compound 4
# [5] = by volume, 100 µM equimolar Compound 4
# T1 sequence (P42858 with tags, fused parts or gaps with the stated changes): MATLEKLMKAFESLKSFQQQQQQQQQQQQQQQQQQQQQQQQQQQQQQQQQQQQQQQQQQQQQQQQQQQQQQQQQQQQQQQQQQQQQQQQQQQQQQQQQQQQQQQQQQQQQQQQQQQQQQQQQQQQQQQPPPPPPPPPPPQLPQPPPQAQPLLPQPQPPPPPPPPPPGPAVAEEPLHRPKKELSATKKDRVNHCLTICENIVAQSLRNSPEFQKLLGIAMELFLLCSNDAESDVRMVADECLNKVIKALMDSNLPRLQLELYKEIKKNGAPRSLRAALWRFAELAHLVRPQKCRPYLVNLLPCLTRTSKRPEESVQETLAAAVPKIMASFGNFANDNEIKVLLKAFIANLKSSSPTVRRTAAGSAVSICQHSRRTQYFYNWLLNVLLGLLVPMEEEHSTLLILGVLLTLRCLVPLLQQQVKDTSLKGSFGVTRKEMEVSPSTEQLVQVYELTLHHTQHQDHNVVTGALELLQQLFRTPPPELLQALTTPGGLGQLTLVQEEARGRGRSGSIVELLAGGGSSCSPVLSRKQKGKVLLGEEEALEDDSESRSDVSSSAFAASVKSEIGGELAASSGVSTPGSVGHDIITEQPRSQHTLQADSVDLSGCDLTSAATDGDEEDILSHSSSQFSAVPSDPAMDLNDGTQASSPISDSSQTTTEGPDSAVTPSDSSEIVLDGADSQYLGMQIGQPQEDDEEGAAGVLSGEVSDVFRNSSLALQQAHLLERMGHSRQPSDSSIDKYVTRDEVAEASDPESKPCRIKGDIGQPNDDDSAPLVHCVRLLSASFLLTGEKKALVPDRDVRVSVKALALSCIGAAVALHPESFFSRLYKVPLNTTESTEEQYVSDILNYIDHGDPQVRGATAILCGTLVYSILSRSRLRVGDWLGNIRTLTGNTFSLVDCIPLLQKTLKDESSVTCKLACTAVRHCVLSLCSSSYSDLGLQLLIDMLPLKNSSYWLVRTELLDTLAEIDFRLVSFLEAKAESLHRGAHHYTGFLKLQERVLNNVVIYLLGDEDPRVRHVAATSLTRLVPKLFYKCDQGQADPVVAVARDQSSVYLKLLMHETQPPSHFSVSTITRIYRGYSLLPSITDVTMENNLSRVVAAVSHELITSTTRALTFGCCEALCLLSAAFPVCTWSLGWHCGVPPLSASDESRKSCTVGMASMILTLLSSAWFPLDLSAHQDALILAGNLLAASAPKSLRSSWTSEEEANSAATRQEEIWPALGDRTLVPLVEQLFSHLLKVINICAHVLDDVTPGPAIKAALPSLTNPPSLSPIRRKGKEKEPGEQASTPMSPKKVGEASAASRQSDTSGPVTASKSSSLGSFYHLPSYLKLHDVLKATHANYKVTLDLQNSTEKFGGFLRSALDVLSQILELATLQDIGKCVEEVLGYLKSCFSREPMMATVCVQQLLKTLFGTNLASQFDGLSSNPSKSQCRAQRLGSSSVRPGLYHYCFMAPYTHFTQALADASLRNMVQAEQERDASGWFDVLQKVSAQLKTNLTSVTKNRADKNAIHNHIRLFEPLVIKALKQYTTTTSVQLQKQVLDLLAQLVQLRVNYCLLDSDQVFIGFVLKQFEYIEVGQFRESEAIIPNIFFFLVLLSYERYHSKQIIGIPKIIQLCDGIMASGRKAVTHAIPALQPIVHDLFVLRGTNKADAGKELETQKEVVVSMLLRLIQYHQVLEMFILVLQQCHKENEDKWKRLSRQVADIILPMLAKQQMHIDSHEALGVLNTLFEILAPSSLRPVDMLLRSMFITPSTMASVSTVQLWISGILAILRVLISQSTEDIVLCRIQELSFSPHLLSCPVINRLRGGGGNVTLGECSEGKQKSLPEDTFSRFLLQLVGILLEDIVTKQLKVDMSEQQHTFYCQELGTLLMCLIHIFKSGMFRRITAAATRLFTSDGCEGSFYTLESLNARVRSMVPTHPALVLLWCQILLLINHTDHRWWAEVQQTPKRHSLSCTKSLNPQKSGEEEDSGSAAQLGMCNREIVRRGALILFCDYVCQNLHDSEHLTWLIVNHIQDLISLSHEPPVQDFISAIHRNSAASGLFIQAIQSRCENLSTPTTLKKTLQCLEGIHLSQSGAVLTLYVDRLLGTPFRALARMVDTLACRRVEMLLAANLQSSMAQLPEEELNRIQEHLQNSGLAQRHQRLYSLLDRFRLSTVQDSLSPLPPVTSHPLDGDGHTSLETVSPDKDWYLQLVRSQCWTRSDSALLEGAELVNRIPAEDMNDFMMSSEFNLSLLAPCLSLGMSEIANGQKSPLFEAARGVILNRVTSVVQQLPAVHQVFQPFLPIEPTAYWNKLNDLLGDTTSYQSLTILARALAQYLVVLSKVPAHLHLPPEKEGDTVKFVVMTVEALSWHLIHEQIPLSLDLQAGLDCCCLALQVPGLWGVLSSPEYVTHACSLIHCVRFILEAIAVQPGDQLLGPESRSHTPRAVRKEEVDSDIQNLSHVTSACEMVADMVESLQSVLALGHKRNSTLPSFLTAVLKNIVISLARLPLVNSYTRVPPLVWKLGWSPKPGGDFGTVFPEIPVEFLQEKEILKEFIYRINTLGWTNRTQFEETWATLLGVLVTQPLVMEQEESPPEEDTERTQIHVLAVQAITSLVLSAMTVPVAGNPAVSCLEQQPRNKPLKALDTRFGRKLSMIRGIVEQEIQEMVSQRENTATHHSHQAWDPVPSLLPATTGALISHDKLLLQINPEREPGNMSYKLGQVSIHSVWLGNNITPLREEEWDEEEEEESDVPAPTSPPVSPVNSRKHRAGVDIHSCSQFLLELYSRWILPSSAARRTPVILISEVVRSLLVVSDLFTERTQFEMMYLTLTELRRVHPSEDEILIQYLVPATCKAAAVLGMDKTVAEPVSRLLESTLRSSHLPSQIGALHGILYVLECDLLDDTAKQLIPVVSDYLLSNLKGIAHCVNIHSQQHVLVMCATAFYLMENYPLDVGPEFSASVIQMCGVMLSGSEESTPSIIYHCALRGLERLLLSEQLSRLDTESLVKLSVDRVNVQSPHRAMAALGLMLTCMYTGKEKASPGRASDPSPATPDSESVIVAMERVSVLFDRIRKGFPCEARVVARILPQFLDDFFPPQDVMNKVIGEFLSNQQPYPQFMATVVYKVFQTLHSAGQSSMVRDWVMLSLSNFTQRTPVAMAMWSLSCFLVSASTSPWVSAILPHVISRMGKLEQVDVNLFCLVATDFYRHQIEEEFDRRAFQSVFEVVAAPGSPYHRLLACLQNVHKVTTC
smiles,measurement,setting,value
Cc1[nH]c2ccc(C(=O)NCCN(C(C)C)C(C)C)cc2c1C [Compound 22],rotarod performance,"R6/2 mice; female R6/2 mice at 10 weeks of age, normalized to 4-week baseline, versus vehicle",significantly improved
same,rotarod performance,"R6/2 mice; pooled genders or males, versus vehicle treated R6/2 mice",no significant differences
same,mean latency to fall,"R6/2 mice; 33 mg/kg intraperitoneal once daily, female R6/2 mice at 10 weeks of age (vehicle 55.7 s)",108.3 s
same,improvement of latency to fall,"R6/2 mice; in comparison to untreated model mice, 10 weeks of age",94%
"CCc1c(C)[nH]c2ccc(C(=O)NCCN(CC)CC)cc12 [Compound 4, N-(2-(diethylamino)ethyl)-3-ethyl-2-methyl-1H-indole-5-carboxamide]",solubility in DMSO,[1]; initial batch,limited solubility
same,dissolved in water,[1]; second batch with an HCl modification,≥ 200 mM
same,pEC50,mHTT [2],6.89
same,cyp-35A1 Log2(fold change),"C. elegans; Day 3, 200 nM",3.04
same,cyp-35B1 Log2(fold change),"C. elegans; Day 3, 200 nM",3.41
same,cyp-35B2 Log2(fold change),"C. elegans; Day 3, 200 nM",9.18
same,cyp-35B3 Log2(fold change),"C. elegans; Day 3, 200 nM",12.96
same,irg-4 Log2(fold change),"C. elegans; Day 3, 200 nM",1.37
same,irg-5 Log2(fold change),"C. elegans; Day 3, 200 nM",2.09
same,pgp-13 Log2(fold change),"C. elegans; Day 3, 200 nM",3.55
same,C18H9.6 Log2(fold change),"C. elegans; Day 3, 2 µM",1.16
same,C29F3.7 Log2(fold change),"C. elegans; Day 3, 2 µM",1.25
same,D1086.3 Log2(fold change),"C. elegans; Day 3, 2 µM",1.19
same,F15B9.6 Log2(fold change),"C. elegans; Day 3, 2 µM",1.57
same,F55G11.2 Log2(fold change),"C. elegans; Day 3, 2 µM",2.80
same,T19B10.2 Log2(fold change),"C. elegans; Day 3, 2 µM",1.79
same,cpr-4 Log2(fold change),"C. elegans; Day 3, 2 µM",1.35
same,cyp-33A1 Log2(fold change),"C. elegans; Day 3, 2 µM",1.27
same,cyp-35A1 Log2(fold change),"C. elegans; Day 3, 2 µM",8.58
same,cyp-35B1 Log2(fold change),"C. elegans; Day 3, 2 µM",5.05
same,cyp-35B2 Log2(fold change),"C. elegans; Day 3, 2 µM",11.26
same,cyp-35B3 Log2(fold change),"C. elegans; Day 3, 2 µM",15.81
same,cyp-35C1 Log2(fold change),"C. elegans; Day 3, 2 µM",2.17
same,far-3 Log2(fold change),"C. elegans; Day 3, 2 µM",1.66
same,gst-5 Log2(fold change),"C. elegans; Day 3, 2 µM",2.71
same,irg-4 Log2(fold change),"C. elegans; Day 3, 2 µM",3.88
same,irg-5 Log2(fold change),"C. elegans; Day 3, 2 µM",5.88
same,pgp-13 Log2(fold change),"C. elegans; Day 3, 2 µM",5.44
same,ugt-44 Log2(fold change),"C. elegans; Day 3, 2 µM",1.45
same,cyp-35A1 Log2(fold change),"C. elegans; Day 10, 200 nM",4.25
same,cyp-35B1 Log2(fold change),"C. elegans; Day 10, 200 nM",1.62
same,cyp-35B2 Log2(fold change),"C. elegans; Day 10, 200 nM",5.71
same,cyp-35B3 Log2(fold change),"C. elegans; Day 10, 200 nM",11.65
same,irg-4 Log2(fold change),"C. elegans; Day 10, 200 nM",1.22
same,irg-5 Log2(fold change),"C. elegans; Day 10, 200 nM",2.12
same,pgp-13 Log2(fold change),"C. elegans; Day 10, 200 nM",4.36
same,F55G11.2 Log2(fold change),"C. elegans; Day 10, 2 µM",1.70
same,K08D8.6 Log2(fold change),"C. elegans; Day 10, 2 µM",1.45
same,cpr-4 Log2(fold change),"C. elegans; Day 10, 2 µM",1.80
same,cyp-35A1 Log2(fold change),"C. elegans; Day 10, 2 µM",6.81
same,cyp-35B1 Log2(fold change),"C. elegans; Day 10, 2 µM",2.06
same,cyp-35B2 Log2(fold change),"C. elegans; Day 10, 2 µM",6.61
same,cyp-35B3 Log2(fold change),"C. elegans; Day 10, 2 µM",13.40
same,cyp-35C1 Log2(fold change),"C. elegans; Day 10, 2 µM",1.60
same,gst-5 Log2(fold change),"C. elegans; Day 10, 2 µM",2.42
same,irg-4 Log2(fold change),"C. elegans; Day 10, 2 µM",2.95
same,irg-5 Log2(fold change),"C. elegans; Day 10, 2 µM",4.26
same,pgp-13 Log2(fold change),"C. elegans; Day 10, 2 µM",6.36
same,"% Number, Peak 1",A30P mutant α-Synuclein; [4],"100,0%"
same,"Size, Peak 1",A30P mutant α-Synuclein; [4],"86,77 nm"
same,"% Volume, Peak 1",A30P mutant α-Synuclein; [5],36.1%
same,"% Volume, Peak 2",A30P mutant α-Synuclein; [5],36.3%
same,"% Volume, Peak 3",A30P mutant α-Synuclein; [5],27.6%
same,"Size, Peak 1",A30P mutant α-Synuclein; [5],107.0 nm
same,"Size, Peak 2",A30P mutant α-Synuclein; [5],313.6 nm
same,"Size, Peak 3",A30P mutant α-Synuclein; [5],3063 nm
same,aggregation of oligomers of A30P,A30P mutant α-Synuclein; equimolar Compound 4,induces the formation of aggregates of oligomers of A30P
same,pEC50,mHTT [3],6.80
